In article PMC5578373, “Inhibitory Kappa B Kinase α (IKKα) Inhibitors That Recapitulate Their Selectivity in Cells against Isoform-Related Biomarkers” (Journal of Medicinal Chemistry, 2017):
Read-outs that look alike come from different tables or passages of the source.

Assays:
MAPKAP-K2(h) = target: T1, MAPKAP-K2(h) (Homo sapiens, UniProt P49137); test: Millipore Kinase Profiler, single concentration; type: biochemical; conditions: duplicate assay points, read-out: % residual activity
T1 construct: purchased Millipore KinaseProfiler
Description: (§1) Kinase profiling of compound 48 was outsourced to Millipore, specifically the Kinase Profiler Customer Service for single concentration studies using duplicate assay points.

PDGFRβ(h) = target: T2, PDGFRβ(h) (Homo sapiens, UniProt P09619); test: Millipore Kinase Profiler, single concentration; type: biochemical; conditions: duplicate assay points, read-out: % residual activity
T2 construct: purchased Millipore KinaseProfiler
Description: as §1

HIPK1(h) = target: T3, HIPK1(h) (Homo sapiens, UniProt Q86Z02); test: Millipore Kinase Profiler, single concentration; type: biochemical; conditions: duplicate assay points, read-out: % residual activity
T3 construct: purchased Millipore KinaseProfiler
T3 sequence (Q86Z02 whole entry): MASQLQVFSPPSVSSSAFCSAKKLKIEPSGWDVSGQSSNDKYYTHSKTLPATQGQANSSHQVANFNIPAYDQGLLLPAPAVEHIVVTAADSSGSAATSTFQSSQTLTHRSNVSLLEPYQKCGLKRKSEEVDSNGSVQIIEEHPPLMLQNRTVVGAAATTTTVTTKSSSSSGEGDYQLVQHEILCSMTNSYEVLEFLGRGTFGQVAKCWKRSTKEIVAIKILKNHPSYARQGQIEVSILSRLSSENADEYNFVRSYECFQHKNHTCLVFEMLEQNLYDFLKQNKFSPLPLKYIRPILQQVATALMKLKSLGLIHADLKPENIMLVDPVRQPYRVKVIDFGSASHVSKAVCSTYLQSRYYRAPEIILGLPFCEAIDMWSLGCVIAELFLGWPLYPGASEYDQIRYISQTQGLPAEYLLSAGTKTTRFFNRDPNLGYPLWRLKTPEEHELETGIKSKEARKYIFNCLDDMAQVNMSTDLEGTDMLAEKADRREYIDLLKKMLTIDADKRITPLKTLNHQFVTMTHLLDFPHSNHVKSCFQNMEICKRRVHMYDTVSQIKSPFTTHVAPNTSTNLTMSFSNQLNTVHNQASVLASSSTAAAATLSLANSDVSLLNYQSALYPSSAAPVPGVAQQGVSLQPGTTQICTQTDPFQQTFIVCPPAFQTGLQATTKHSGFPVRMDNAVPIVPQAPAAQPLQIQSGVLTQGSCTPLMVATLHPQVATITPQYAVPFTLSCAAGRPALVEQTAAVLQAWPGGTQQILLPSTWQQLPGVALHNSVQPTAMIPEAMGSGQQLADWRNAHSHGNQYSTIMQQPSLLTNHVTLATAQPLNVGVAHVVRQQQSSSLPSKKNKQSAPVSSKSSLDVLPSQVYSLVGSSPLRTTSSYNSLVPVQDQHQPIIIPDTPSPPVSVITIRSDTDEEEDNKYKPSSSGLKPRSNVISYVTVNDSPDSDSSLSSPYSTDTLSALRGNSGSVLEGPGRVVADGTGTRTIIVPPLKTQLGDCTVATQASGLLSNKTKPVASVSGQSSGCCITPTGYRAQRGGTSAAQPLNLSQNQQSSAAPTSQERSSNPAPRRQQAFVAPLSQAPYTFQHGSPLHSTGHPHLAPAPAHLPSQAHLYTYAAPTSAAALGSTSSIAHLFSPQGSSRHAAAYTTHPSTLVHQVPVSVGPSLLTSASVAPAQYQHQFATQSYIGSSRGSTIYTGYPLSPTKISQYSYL
Description: as §1

IR(h) = target: T4, IR(h) (Homo sapiens, UniProt P06213); test: Millipore Kinase Profiler, single concentration; type: biochemical; conditions: duplicate assay points, read-out: % residual activity
T4 construct: purchased Millipore KinaseProfiler
Description: as §1

PKCα(h) = target: T5, PKCα(h) (Homo sapiens, UniProt P17252); test: Millipore Kinase Profiler, single concentration; type: biochemical; conditions: duplicate assay points, read-out: % residual activity
T5 construct: purchased Millipore KinaseProfiler
Description: as §1

NEK2(h) = target: T6, NEK2(h) (Homo sapiens, UniProt P51955); test: Millipore Kinase Profiler, single concentration; type: biochemical; conditions: duplicate assay points, read-out: % residual activity
T6 construct: purchased Millipore KinaseProfiler
T6 sequence (P51955 whole entry): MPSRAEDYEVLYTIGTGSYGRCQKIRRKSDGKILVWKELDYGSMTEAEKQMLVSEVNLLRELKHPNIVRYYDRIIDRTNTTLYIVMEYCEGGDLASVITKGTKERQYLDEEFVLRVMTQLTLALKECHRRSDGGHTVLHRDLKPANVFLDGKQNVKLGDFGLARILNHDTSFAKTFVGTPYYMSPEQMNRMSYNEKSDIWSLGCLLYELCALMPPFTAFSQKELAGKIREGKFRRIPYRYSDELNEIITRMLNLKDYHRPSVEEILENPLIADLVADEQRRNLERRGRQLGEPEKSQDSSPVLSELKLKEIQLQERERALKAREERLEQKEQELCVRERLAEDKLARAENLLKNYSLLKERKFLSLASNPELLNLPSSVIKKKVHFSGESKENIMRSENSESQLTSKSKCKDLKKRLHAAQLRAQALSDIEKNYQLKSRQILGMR
Description: as §1

ROCK-II(h) = target: T7, ROCK-II(h) (Homo sapiens, UniProt O75116); test: Millipore Kinase Profiler, single concentration; type: biochemical; conditions: duplicate assay points, read-out: % residual activity
T7 construct: purchased Millipore KinaseProfiler
Description: as §1

LIMK1(h) = target: T8, LIMK1(h) (Homo sapiens, UniProt P53667); test: Millipore Kinase Profiler, single concentration; type: biochemical; conditions: duplicate assay points, read-out: % residual activity
T8 construct: purchased Millipore KinaseProfiler
T8 sequence (P53667 whole entry): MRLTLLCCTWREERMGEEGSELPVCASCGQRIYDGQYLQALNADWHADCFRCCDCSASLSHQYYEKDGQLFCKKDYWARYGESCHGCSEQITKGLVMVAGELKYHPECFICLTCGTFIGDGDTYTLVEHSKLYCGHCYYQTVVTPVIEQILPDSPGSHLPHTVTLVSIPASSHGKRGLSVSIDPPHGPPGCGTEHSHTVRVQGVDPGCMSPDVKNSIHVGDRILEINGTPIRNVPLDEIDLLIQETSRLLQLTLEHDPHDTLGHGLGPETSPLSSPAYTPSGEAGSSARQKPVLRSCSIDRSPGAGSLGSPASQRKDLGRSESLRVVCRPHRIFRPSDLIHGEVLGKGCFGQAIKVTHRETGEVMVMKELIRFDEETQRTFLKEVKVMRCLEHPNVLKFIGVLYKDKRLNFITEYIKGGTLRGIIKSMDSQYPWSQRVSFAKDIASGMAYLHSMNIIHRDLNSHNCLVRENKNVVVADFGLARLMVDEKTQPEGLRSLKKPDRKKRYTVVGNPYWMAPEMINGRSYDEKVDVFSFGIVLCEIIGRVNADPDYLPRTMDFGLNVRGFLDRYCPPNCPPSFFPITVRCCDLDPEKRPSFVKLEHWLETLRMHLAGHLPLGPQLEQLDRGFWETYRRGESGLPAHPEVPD
Description: as §1

PAK2(h) = target: T9, PAK2(h) (Homo sapiens, UniProt Q13177); test: Millipore Kinase Profiler, single concentration; type: biochemical; conditions: duplicate assay points, read-out: % residual activity
T9 construct: purchased Millipore KinaseProfiler
Description: as §1

CK1δ(h) = target: T10, CK1δ(h) (Homo sapiens, UniProt P48730); test: Millipore Kinase Profiler, single concentration; type: biochemical; conditions: duplicate assay points, read-out: % residual activity
T10 construct: purchased Millipore KinaseProfiler
Description: as §1

AMPKα1(h) = target: T11, AMPKα1(h) (Homo sapiens, UniProt Q13131); test: Millipore Kinase Profiler, single concentration; type: biochemical; conditions: duplicate assay points, read-out: % residual activity
T11 construct: purchased Millipore KinaseProfiler
Description: as §1

MST2(h) = target: T12, MST2(h) (Homo sapiens, UniProt Q13188); test: Millipore Kinase Profiler, single concentration; type: biochemical; conditions: duplicate assay points, read-out: % residual activity
T12 construct: purchased Millipore KinaseProfiler
Description: as §1

Abl(h) = target: T13, Abl(h) (Homo sapiens, UniProt P00519); test: Millipore Kinase Profiler, single concentration; type: biochemical; conditions: duplicate assay points, read-out: % residual activity
T13 construct: purchased Millipore KinaseProfiler
Description: as §1

FGFR3(h) = target: T14, FGFR3(h) (Homo sapiens, UniProt P22607); test: Millipore Kinase Profiler, single concentration; type: biochemical; conditions: duplicate assay points, read-out: % residual activity
T14 construct: purchased Millipore KinaseProfiler
T14 sequence (P22607 23-806): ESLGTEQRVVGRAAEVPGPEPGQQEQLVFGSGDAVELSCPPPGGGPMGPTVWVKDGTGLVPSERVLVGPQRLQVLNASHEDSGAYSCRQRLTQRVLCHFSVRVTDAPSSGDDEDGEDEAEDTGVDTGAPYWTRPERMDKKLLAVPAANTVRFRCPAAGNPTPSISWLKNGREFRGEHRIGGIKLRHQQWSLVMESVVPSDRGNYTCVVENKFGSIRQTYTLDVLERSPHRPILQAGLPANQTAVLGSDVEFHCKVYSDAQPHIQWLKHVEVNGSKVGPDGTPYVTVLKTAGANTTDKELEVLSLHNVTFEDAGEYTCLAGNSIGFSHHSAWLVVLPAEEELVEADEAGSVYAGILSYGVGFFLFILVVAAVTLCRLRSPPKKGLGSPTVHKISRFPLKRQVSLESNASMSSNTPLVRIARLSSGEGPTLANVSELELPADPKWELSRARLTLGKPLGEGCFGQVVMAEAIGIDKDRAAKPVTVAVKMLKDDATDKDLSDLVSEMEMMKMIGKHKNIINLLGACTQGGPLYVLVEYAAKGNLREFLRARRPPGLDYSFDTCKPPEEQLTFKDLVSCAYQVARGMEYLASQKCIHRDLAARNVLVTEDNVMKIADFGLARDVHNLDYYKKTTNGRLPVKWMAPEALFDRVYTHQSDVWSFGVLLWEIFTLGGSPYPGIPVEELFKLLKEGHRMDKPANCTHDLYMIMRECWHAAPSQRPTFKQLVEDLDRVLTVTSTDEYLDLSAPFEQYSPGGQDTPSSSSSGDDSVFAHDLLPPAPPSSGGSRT
Description: as §1

MEK1(h) = target: T15, MEK1(h) (Homo sapiens, UniProt Q02750); test: Millipore Kinase Profiler, single concentration; type: biochemical; conditions: duplicate assay points, read-out: % residual activity
T15 construct: purchased Millipore KinaseProfiler
Description: as §1

ALK(h) = target: T16, ALK(h) (Homo sapiens, UniProt Q9UM73); test: Millipore Kinase Profiler, single concentration; type: biochemical; conditions: duplicate assay points, read-out: % residual activity
T16 construct: purchased Millipore KinaseProfiler
Description: as §1

CHK1(h) = target: T17, CHK1(h) (Homo sapiens, UniProt O14757); test: Millipore Kinase Profiler, single concentration; type: biochemical; conditions: duplicate assay points, read-out: % residual activity
T17 construct: purchased Millipore KinaseProfiler
Description: as §1

PKD2(h) = target: T18, PKD2(h) (Homo sapiens, UniProt Q9BZL6); test: Millipore Kinase Profiler, single concentration; type: biochemical; conditions: duplicate assay points, read-out: % residual activity
T18 construct: purchased Millipore KinaseProfiler
Description: as §1

CK2(h) = target: T19, CK2(h) (Homo sapiens, UniProt P68400); test: Millipore Kinase Profiler, single concentration; type: biochemical; conditions: duplicate assay points, read-out: % residual activity
T19 construct: purchased Millipore KinaseProfiler
Description: as §1

Fes(h) = target: T20, Fes(h) (Homo sapiens, UniProt P07332); test: Millipore Kinase Profiler, single concentration; type: biochemical; conditions: duplicate assay points, read-out: % residual activity
T20 construct: purchased Millipore KinaseProfiler
T20 sequence (P07332 whole entry): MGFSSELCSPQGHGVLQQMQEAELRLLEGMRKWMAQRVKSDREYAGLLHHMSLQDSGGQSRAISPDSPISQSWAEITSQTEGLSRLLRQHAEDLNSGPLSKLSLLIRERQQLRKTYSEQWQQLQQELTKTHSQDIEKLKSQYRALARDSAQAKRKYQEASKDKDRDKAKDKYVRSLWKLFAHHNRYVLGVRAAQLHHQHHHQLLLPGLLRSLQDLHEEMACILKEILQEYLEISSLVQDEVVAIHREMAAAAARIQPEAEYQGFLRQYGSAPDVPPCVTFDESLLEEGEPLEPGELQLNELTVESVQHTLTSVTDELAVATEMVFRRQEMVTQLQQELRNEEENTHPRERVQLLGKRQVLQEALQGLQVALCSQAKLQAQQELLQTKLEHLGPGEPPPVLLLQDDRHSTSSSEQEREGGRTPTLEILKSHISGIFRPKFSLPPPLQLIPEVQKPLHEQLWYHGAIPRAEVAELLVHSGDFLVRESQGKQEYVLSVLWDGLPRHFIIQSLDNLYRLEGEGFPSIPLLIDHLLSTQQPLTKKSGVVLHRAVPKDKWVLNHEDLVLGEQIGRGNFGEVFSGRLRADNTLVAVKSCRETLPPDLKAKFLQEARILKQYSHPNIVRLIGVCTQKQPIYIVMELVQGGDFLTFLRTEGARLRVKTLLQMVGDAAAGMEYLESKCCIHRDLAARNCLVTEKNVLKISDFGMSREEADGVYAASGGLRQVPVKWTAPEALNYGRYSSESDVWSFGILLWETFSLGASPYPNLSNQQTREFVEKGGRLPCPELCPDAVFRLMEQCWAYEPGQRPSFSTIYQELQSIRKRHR
Description: as §1

c-RAF(h) = target: T21, c-RAF(h) (Homo sapiens, UniProt P04049); test: Millipore Kinase Profiler, single concentration; type: biochemical; conditions: duplicate assay points, read-out: % residual activity
T21 construct: purchased Millipore KinaseProfiler
T21 sequence (P04049 whole entry): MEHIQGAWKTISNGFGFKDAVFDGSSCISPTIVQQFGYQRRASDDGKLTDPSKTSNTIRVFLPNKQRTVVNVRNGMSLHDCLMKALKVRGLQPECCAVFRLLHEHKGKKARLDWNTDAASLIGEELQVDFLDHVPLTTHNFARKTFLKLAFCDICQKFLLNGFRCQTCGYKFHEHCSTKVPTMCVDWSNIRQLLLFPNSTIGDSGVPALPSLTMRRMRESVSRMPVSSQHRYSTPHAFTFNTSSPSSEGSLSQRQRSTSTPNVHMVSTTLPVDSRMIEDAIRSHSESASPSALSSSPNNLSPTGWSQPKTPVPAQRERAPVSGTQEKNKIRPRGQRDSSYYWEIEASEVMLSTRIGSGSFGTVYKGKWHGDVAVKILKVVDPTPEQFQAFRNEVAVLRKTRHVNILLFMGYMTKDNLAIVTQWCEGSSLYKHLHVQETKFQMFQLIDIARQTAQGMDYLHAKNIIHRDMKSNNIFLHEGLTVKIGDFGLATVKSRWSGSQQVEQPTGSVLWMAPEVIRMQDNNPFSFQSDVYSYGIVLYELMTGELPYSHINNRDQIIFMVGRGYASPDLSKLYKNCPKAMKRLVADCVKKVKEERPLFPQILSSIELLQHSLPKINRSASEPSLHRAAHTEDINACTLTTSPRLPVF
Description: as §1

CaMKI(h) = target: T22, CaMKI(h) (Homo sapiens, UniProt Q14012); test: Millipore Kinase Profiler, single concentration; type: biochemical; conditions: duplicate assay points, read-out: % residual activity
T22 construct: purchased Millipore KinaseProfiler
T22 sequence (Q14012 whole entry): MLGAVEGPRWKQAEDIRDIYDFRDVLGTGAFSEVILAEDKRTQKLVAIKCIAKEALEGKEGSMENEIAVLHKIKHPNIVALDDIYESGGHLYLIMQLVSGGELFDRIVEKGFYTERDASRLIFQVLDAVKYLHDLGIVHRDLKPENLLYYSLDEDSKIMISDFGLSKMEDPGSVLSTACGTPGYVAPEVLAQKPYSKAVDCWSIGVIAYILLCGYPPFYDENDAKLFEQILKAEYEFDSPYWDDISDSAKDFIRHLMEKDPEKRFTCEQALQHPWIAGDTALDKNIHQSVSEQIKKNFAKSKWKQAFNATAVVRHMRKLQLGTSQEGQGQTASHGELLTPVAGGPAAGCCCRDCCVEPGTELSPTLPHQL
Description: as §1

[1] = system: IKKα-driven p100 phosphorylation in U2OS cells; test: FCS-stimulated p100 phosphorylation (Ser866/870) in U2OS cells, Western blot; type: cell-based, human; conditions: 1 h pretreatment, FCS (10%) for 4 h, blots quantified, read-out: IC50 for inhibition of p100 phosphorylation
Experimental: Two IKKβ-dependent readouts were selected to assess selectivity over IKKβ. First, TNFα stimulates IκBα degradation through activation of IKKβ and if IKKβ is inhibited, then a band corresponding to the IκBα protein should be evident by Western analysis. Second, IKKβ phosphorylates p65 on Ser536, which can also be assessed by Western blot analysis. Only at the highest concentration (100 μM) of 48 was IκBα degradation and p65 (Ser536) phosphorylation inhibited (Figure 9b). Even at this high concentration, these effects were not apparent following pretreatment with 47 (Figure 10b).
(§2) Figure 9 Effect of compound 48 on (a) FCS-stimulated noncanonical and (b) TNF-α-induced canonical NF-kB activation in U2OS cells. Cells were pretreated with 48 1 h prior to stimulation with FCS (10%) for 4 h or TNF-α (10 ng/mL) for 30 min. Whole cell lysate were prepared, separated by SDS-PAGE, and assessed for (a) inhibition of p100 phosphorylation (Ser866/870) and (b) IkB-α and p-p65 (Ser536) status. […] The results are representative of three independent experiments.
as §2, with “10” for “9”, “47” for “48”
U2OS cells were cultured with McCoy’s 5A modified medium and MEF were cultured with DEME medium containing 10% (v/v) FCS and medium was changed every 2 d thereafter until cells became confluent. Cells were incubated at 37 °C in humidified air with 5% CO2 and rendered quiescent by serum deprivation for 24 h prior to stimulation in serum-free medium.
Whole cell lysates were prepared from U2OS and status of IκBα, p65, p-p65 (Ser536), and p-p100 (Ser 866/870) assessed by Western blotting as described in Mackenzie et al. (2007).[46]

In the case of `N#Cc1c[nH]c2nc(N)nc(-c3ccc(S(N)(=O)=O)cc3)c12` [Compound 48, 4-(2-Amino-5-cyano-7H-pyrrolo[2,3-d]pyrimidin-4-yl)benzenesulfonamide], the remaining activity at 10 µM (MAPKAP-K2(h)) is reported as 69%, the remaining activity at 10 µM (PDGFRβ(h)) is reported as 104% and the remaining activity at 10 µM (HIPK1(h)) is reported as 90%. For the same molecule, the remaining activity at 10 µM (IR(h)) was 89%, the remaining activity at 10 µM (PKCα(h)) was 41% and the remaining activity at 10 µM (NEK2(h)) was 96%. For the same molecule, the remaining activity at 10 µM (ROCK-II(h)) was 20%, the remaining activity at 10 µM (LIMK1(h)) was 30% and the remaining activity at 10 µM (PAK2(h)) was 73%. It also gave a remaining activity at 10 µM (CK1δ(h)) of 4%, a remaining activity at 10 µM (AMPKα1(h)) of 22% and a remaining activity at 10 µM (MST2(h)) of 59%. The remaining activity at 10 µM (Abl(h)) was 69%, the remaining activity at 10 µM (FGFR3(h)) was 32% and the remaining activity at 10 µM (MEK1(h)) was 14%. The remaining activity at 10 µM (ALK(h)) was 84%, the remaining activity at 10 µM (CHK1(h)) was 58% and the remaining activity at 10 µM (PKD2(h)) was 26%. It also gave a remaining activity at 10 µM (CK2(h)) of 37%, a remaining activity at 10 µM (Fes(h)) of 27% and a remaining activity at 10 µM (c-RAF(h)) of 37%. It also gave a remaining activity at 10 µM (CaMKI(h)) of 12%, an IC50 [1] of 5.8 µM and an IC50 ([1]; Homo sapiens, U2OS) of 8.8 µM.
